Source: patent US11034742B2, “Peptides with antibiotic potential against Mycobacterium tuberculosis” (LINNANE PHARMA AB, priority 2017, dated 2021)
Entries after “also recorded” stand apart in the source; their conditions may differ. Where two headings read alike, the source gives them in different places. Marks after values point to notes of the source that are not given here. Positions of bridges follow the written chain, without caps; N, C: chain ends. Residues, ends and D or L forms follow the SMILES beside them.

Key:
M. tuberculosis = conditions: Table 1; from Schon et al. 2009; cited from earlier work
[1] = system: primary human macrophages; assay: Cytotoxicity, ATPlite (cellular ATP levels); type: cell-based; conditions: 100 μM, 24 hours
Method: (§1) Human venous blood mononuclear cells were obtained from healthy volunteers using a Lymphoprep density gradient (Axis-Shield, Oslo, Norway) according to the manufacturers instructions. To obtain pure monocytes, the cell suspension was applied to CD14 micro beads (MACS), washed and passed through magnetic column according to manufacturers description. The monocytes were counted (Sysmex), diluted in RPMI medium containing GM-CSF (50 ng/mL) and seeded in 96-well plates (10^5/well) for a week to differentiate into macrophages.
(§2) The variant antimicrobial peptide of SEQ ID NO: 3 cytotoxicity was further examined by PrestoBlue® and ATPlite™ assays. Primary macrophages were treated with 100 μM variant antimicrobial peptide of SEQ ID NO: 3 or 50 μM Staurosporine (S-4400, Sigma) for 24 hours. Cell viability was assessed with PrestoBlue® fluorescence (A13261, Thermo Scientific) and cellular ATP levels using ATPlite™ kit (#6016943, Perkin Elmer) compared to untreated control, according to the manufacturers' instructions.

Cytotoxicity, MTT assay = type: cell-based, human; conditions: human, primary human monocyte-derived macrophages; 6.3 μM peptide concentration; read-out: macrophage viability (MTT)
Method: as §1
(§3) Primary macrophages were prepared from whole blood (see above). The medium was replaced with fresh medium containing 0, 6.3, 12.5, 25 or 100 μM peptides and incubated for 0, 1, 4 and 24 h in 5% CO2 atmosphere. For cytotoxicity measurement, 10 μl 3-(4,5-dimethylthiazol-2-yl)-2,5 diphenyltetrazolium bromide (MTT) solution (Sigma) was added to each well according to manufacturers instructions, and analyzed in a spectrophotometer at 580 nm.

[2] = system: primary human macrophages; assay: Cytotoxicity, MTT assay; type: cell-based; conditions: for macrophage viability (MTT): 6.3 μM peptide concentration; for toxicity to human cells / macrophages (in words): primary human macrophages
Method: as §1, §3

human α-thrombin = molecular target: T1, human α-thrombin (Homo sapiens, UniProt P00734); assay: Protease sensitivity assay, α-thrombin; type: in vitro ADME; conditions: 37° C., 6 h
T1 construct: human α-thrombin (0.4 μg Innovative Research); purchased Innovative Research
Method: (§4) The variant antimicrobial peptide of SEQ ID NO: 3 (1 μg) was incubated at 37° C. with human neutrophil elastase (HNE, 0.4 μg, 29 units/mg; Calbiochem (La Jolla, Calif.), Cathepsin G (0.4 μg, EMD Millipore) and human α-thrombin (0.4 μg Innovative Research) in a total volume of 20 μL for 6 h. Furthermore 2 μg of the variant antimicrobial peptide of SEQ ID NO: 3 was incubated with 0.4 μg of HNE for kinetic study of peptide degradations. The materials were analyzed on 10-20% precast SDS-PAGE Tris-Tricine gels (Life Technologies) and analyzed after staining with Coomassie Blue R-250. […]

[3] = system: M. tuberculosis H37Rv and clinical isolate TB2016/268; type: cell-based, Mycobacterium tuberculosis
[4] = system: primary human macrophages; assay: Cytotoxicity, PrestoBlue (reducing metabolites); type: cell-based; conditions: 100 μM, 24 hours
Method: as §1, §2

[5] = molecular target: T2, human neutrophil elastase (HNE) (Homo sapiens, UniProt P08246); assay: Protease sensitivity assay, HNE; type: in vitro ADME; conditions: isolated human neutrophil elastase (HNE), after 22 hours, 37° C., read-out: peptide breakdown by HNE
T2 construct: purchased Calbiochem (La Jolla, Calif.)
T2 sequence (P08246 30-267): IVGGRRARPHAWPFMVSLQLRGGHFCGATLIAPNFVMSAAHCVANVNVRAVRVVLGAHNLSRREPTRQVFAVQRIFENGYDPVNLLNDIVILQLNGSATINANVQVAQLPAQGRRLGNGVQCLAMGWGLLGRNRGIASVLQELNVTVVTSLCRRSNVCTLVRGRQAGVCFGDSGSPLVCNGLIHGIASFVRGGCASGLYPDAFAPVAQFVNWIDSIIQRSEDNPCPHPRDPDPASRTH
Method: as §4

M. tuberculosis H37Rv [6] = assay: Murine TB model, lung histology and immunohistochemistry; set-up: species or system BALB/c mice; conditions: mouse, in vivo
M. tuberculosis H37Rv [7] = type: in vivo, BALB/c mice; conditions: 0.83 mg
Cathepsin G = molecular target: T3, Cathepsin G (Homo sapiens, UniProt P08311); assay: Protease sensitivity assay, Cathepsin G; type: in vitro ADME; conditions: 37° C., 6 h
T3 construct: purchased EMD Millipore
T3 sequence (P08311 21-244): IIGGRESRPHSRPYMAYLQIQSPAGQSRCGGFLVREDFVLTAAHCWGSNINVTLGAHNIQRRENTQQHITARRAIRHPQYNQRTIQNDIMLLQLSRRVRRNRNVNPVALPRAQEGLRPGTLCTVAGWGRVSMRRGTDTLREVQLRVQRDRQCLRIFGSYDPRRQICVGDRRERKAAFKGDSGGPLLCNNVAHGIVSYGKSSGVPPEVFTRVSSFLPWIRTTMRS
Method: as §4

[8] = system: M. tuberculosis H37Rv and TB2016/268; type: cell-based, Mycobacterium tuberculosis; conditions: gold-labelled peptide, 6.3 μM

Row | SMILES | MIC (mg/L) (M. tuberculosis) | MIC (μM) (M. tuberculosis) | toxicity, cellular ATP levels (ATPlite) [1] | viability at 6.3 µM (Cytotoxicity, MTT assay) [%] | macrophage viability (MTT) [2] [%] | toxicity to human cells / macrophages (in words) [2] | peptide degradation by human α-thrombin (human α-thrombin) | Mycobacterial killing efficiency [3] [%] | toxicity, reducing metabolites (PrestoBlue) [4] | metabolised at 22 h [5] [%] | lung tissue damage, inflammation, bacterial and neutrophil counts (IHC, H&E) (M. tuberculosis H37Rv [6]) | lung CFU reduction vs control animals (M. tuberculosis H37Rv [7]; five days of daily intra-tracheal treatment) [%] | lung CFU reduction vs control animals (M. tuberculosis H37Rv [7]; three days of daily intra-tracheal treatment) [%] | peptide degradation by Cathepsin G (Cathepsin G) | association of peptide with the mycobacterial membrane (TEM) [8]
1 | CC[C@@H](CO)NCCN[C@@H](CC)CO [Ethambutol] | 5.0* mg/L | 24.5* μM | – | – | – | – | – | – | – | – | – | – | – | – | –
2 | NNC(=O)c1ccncc1 [Isoniazid] | 0.2* mg/L | 1.5* μM | – | – | – | – | – | – | – | – | – | – | – | – | –
3 | CC[C@H](C)[C@@H]1NC(=O)[C@H](CO)NC(=O)[C@H](CCCCN)NC(=O)[C@@H]2CSSC[C@@H](C(=O)N[C@@H](Cc3ccc(O)cc3)C(=O)O)NC(=O)[C@H](CCCCN)NC(=O)[C@@H]3CSSC[C@H](NC(=O)[C@H](CCC(N)=O)NC(=O)[C@H]([C@@H](C)CC)NC(=O)[C@H](CC(=O)O)NC(=O)[C@H](CC(=O)O)NC(=O)[C@H](CCC(=O)O)NC(=O)[C@H](CO)NC(=O)[C@H](Cc4c[nH]c5ccccc45)NC(=O)[C@@H]4CCCN4C(=O)CNC(=O)[C@H](CC(N)=O)NC(=O)[C@@H](NC(=O)CNC(=O)[C@H](Cc4ccccc4)NC(=O)CN)CSSC[C@H](NC(=O)[C@H](Cc4ccc(O)cc4)NC(=O)CNC(=O)CNC(=O)[C@H](CCCCN)NC(=O)[C@H](Cc4ccc(O)cc4)NC(=O)CNC(=O)[C@H](CCCCN)NC1=O)C(=O)N[C@@H](C)C(=O)N[C@@H](CCCNC(=N)N)C(=O)NCC(=O)NCC(=O)N[C@@H](Cc1ccccc1)C(=O)N[C@@H](C(C)C)C(=O)N3)C(=O)N[C@@H](Cc1c[nH]cn1)C(=O)N[C@@H](CC(N)=O)C(=O)N[C@@H](Cc1c[nH]cn1)C(=O)N2 [SEQ ID NO: 3] (H-GFGCNGPWSEDDIQCHNHCKSIKGYKGGYCARGGFVCKCY-OH; disulfide 4-30, 15-37, 19-39 (inferred); N-terminus and C-terminus assumed) | – | – | did not show any toxicity | 87.5 | 87.5 | not Toxic to Human Cells | only HNE showed peptide degradation | 73.8 | did not show any toxicity | ~50 | less tissue damage, lower bacterial and neutrophil counts than infected controls; also recorded: low counts of both neutrophils and bacteria in the lungs | 86 | 46 | only HNE showed peptide degradation | associated with the mycobacterial envelope within one hour of exposure and disrupted bacterial membranes; also recorded: associated with the mycobacterial membrane
4 | CC[C@H](C)[C@@H]1NC(=O)[C@H](C)NC(=O)[C@@H]2CSSC[C@H](NC(=O)CNC(=O)[C@H](Cc3ccccc3)NC(=O)CN)C(=O)N[C@@H](CC(N)=O)C(=O)NCC(=O)N3CCC[C@H]3C(=O)N[C@@H](Cc3c[nH]c4ccccc34)C(=O)N[C@@H](CO)C(=O)N[C@@H](CCC(=O)O)C(=O)N[C@@H](CC(=O)O)C(=O)N[C@@H](CC(=O)O)C(=O)N[C@@H]([C@@H](C)CC)C(=O)N[C@@H](CCC(N)=O)C(=O)N[C@H]3CSSC[C@H](NC(=O)[C@H](C(C)C)NC(=O)[C@H](Cc4ccccc4)NC(=O)CNC(=O)CNC1=O)C(=O)N[C@@H](CCCCN)C(=O)N[C@H](C(=O)N[C@@H](Cc1ccc(O)cc1)C(=O)O)CSSC[C@H](NC(=O)[C@H](Cc1c[nH]cn1)NC(=O)[C@H](CC(N)=O)NC(=O)[C@H](Cc1c[nH]cn1)NC3=O)C(=O)N[C@@H](CCCCN)C(=O)N[C@@H](CO)C(=O)N[C@@H]([C@@H](C)CC)C(=O)N[C@@H](CCCCN)C(=O)NCC(=O)N[C@@H](Cc1ccc(O)cc1)C(=O)N[C@@H](CCCCN)C(=O)NCC(=O)NCC(=O)N[C@@H](Cc1ccc(O)cc1)C(=O)N2 [SEQ ID NO: 4] (H-GFGCNGPWSEDDIQCHNHCKSIKGYKGGYCAIGGFVCKCY-OH; disulfide 4-30, 15-37, 19-39 (inferred); N-terminus and C-terminus assumed) | – | – | – | 86.3 | 86.3 | not Toxic to Human Cells | – | 74.8 | – | – | – | – | – | – | –
